4 molecules from patent US20080009418A1, “Selective Inhibitors” (Alchemia LTD., priority 2004, published 2008) can be followed below.

One assay addresses T1, Human Melanocortin (MC4) (Homo sapiens, UniProt P32245).
T1 construct: purchased Perkin Elmer Biosignal
Kind of assay: Radioligand binding, human melanocortin MC4 membranes, FlashPlate, [125I]-NDP-αMSH. The following applies: compound at 10 μM, [125I]-NDP-αMSH. Summed up: (§1)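 Cloned human receptor membranes were coated onto FlashPlate wells and incubated with radioligand and compound (added from a 0.5 mM DMSO daughter plate) for 1 hour at room temperature in the dark. Scintillation counting gave percent inhibition, with DMSO defining total and reference ligand defining non-specific binding.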

Another assay deals with T2, Mouse urotensin (mUR2) (Mus musculus, UniProt Q8VIH9).
T2 construct: purchased Perkin Elmer Biosignal
T2 sequence (Q8VIH9 1-385): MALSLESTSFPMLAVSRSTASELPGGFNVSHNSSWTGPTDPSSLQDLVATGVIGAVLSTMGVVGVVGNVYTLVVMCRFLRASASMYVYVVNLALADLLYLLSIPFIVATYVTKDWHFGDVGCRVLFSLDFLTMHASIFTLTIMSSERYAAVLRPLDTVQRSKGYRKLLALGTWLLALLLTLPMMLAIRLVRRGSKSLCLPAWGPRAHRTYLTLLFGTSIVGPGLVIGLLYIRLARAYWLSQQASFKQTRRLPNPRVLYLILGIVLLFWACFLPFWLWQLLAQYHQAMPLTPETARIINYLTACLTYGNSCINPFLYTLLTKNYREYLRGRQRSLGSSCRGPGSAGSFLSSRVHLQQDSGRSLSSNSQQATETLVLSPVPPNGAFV
Kind of assay: Radioligand binding, mouse urotensin mUR2 membranes, FlashPlate, [125I]-Urotensin II. The following applies: compound at 10 μM, [125I]-Urotensin II. The procedure, abridged: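 Cloned mouse urotensin (mUR2) receptor membranes from Perkin Elmer Biosignal were immobilized in FlashPlate microplates using a proprietary coating. Each well got 19.5 μl buffer, then 0.5 μl of DMSO, reference ligand, or compound. Adding 5 μl of [125I]-Urotensin II, diluted to 5× final concentration in binding buffer, started binding. Plates were sealed with TopSeal-A and incubated 1 hour at room temperature in the dark. Wells were counted for 30 seconds each on a TopCount after a 60-second delay, and percentage inhibition was calculated.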

The target of the next assay is T3, Human melanocortin (MC5) (Homo sapiens, UniProt P33032).
T3 construct: purchased Perkin Elmer Biosignal
Kind of assay: Radioligand binding, human melanocortin MC5 membranes, FlashPlate, [125I]-NDP-αMSH. To be noted: compound at 10 μM, [125I]-NDP-αMSH. The procedure, abridged: as §1

Another assay addresses T4, Human μ-opioid (MOP) (Homo sapiens, UniProt P35372).
T4 construct: purchased Perkin Elmer Biosignal
Kind of assay: Radioligand binding, human μ-opioid (MOP) membranes, FlashPlate, [3H]-Naloxone. The following applies: compound at 10 μM, [3H]-Naloxone. Summed up: as §1

Another assay deals with T5, Human κ-Opioid (KOP) (Homo sapiens, UniProt P41145).
T5 construct: purchased Perkin Elmer Biosignal
Kind of assay: Radioligand binding, human κ-opioid (KOP) membranes, filtration, [3H]-Diprenorphine. To be noted: compound at 10 μM, [3H]-Diprenorphine. Summed up:
(§2)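 Filtration binding on cloned human receptor membranes (1 Unit/well), [125I]-Substance P for NK1 and [3H]-Diprenorphine for KOP, 1 h at room temperature. Filters PEI-presoaked, washed with cold 50 mM Tris-HCl pH 7.4, counted by scintillation; percent inhibition calculated, reference ligand defining non-specific binding.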

The target in another assay is T6, Human neurokinin (NK1) (Homo sapiens, UniProt P25103).
T6 construct: purchased Perkin Elmer Biosignal
Kind of assay: Radioligand binding, human neurokinin NK1 membranes, filtration, [125I]-Substance P. The following applies: compound at 10 μM, [125I]-Substance P. The procedure, abridged:
as §2

Assay [1] has as its target T7, Human melanin-concentrating hormone (MCH1) (Homo sapiens, UniProt Q99705).
T7 construct: purchased Perkin Elmer Biosignal
Kind of assay: Radioligand binding, human melanin-concentrating hormone MCH1 membranes, FlashPlate, [125I]-S36057. To be noted: compound at 10 μM. The procedure, abridged: as §1

Another assay addresses T8, Human opioid (ORL1) (Homo sapiens, UniProt P41146).
T8 construct: purchased Perkin Elmer Biosignal
The assay is described as follows: Radioligand binding, human opioid ORL1 membranes, FlashPlate, [125I]-Nociceptin. The following applies: compound at 10 μM, [125I]-Nociceptin. Summed up:
as §1

Another assay addresses T9, Human δ-opioid (DOP) (Homo sapiens, UniProt P41143).
T9 construct: purchased Perkin Elmer Biosignal
The assay is described as follows: Radioligand binding, human δ-opioid (DOP) membranes, FlashPlate, [3H]-Bremazocine. To be noted: compound at 10 μM, [3H]-Bremazocine. Summed up: as §1

Assay [2] deals with T10, Human neuropeptide Y (NPY-Y1) (Homo sapiens, UniProt P25929).
T10 construct: purchased Perkin Elmer Biosignal
T10 sequence (P25929 1-384): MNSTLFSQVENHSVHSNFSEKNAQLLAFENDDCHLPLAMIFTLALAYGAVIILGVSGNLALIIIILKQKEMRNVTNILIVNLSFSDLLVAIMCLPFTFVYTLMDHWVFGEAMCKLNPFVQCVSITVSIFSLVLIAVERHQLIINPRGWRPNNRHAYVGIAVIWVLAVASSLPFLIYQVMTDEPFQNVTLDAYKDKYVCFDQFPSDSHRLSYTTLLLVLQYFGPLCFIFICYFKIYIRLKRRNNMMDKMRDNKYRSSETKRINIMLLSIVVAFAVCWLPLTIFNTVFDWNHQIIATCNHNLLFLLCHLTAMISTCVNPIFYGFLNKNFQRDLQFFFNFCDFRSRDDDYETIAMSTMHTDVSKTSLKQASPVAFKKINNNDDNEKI
Kind of assay: Radioligand binding, human neuropeptide Y NPY-Y1 membranes, FlashPlate, [125I]-PYY. To be noted: compound at 10 μM, [125I]-PYY. The procedure, abridged:
as §1

Another assay deals with T11, Human Melanocortin (MC3) (Homo sapiens, UniProt P41968).
T11 construct: purchased Perkin Elmer Biosignal
The assay is described as follows: Radioligand binding, human melanocortin MC3 membranes, FlashPlate, [125I]-NDP-αMSH. The following applies: compound at 10 μM, [125I]-NDP-αMSH. The procedure, abridged:
as §1

T3 sequence (P33032 whole entry): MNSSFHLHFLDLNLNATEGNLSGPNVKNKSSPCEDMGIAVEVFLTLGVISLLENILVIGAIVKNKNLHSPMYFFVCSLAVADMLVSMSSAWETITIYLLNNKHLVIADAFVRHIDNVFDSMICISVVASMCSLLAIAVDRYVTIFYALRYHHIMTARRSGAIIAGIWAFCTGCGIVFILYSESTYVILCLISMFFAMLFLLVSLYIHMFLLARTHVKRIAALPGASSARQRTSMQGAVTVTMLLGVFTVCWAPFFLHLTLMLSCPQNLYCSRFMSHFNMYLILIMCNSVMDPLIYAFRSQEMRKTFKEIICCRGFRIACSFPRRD
T6 sequence (P25103 whole entry): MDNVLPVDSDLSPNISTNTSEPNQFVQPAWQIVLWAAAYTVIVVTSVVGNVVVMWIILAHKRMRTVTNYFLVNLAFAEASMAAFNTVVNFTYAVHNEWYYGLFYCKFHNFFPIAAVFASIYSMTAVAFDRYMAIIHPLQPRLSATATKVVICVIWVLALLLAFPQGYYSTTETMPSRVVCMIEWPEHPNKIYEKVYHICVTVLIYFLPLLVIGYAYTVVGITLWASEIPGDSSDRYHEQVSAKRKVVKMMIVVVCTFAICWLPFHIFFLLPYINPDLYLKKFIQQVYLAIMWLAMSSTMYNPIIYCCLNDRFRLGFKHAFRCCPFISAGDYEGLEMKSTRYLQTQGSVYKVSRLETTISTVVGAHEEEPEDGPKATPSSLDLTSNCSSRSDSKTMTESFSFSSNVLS
T11 sequence (P41968 whole entry): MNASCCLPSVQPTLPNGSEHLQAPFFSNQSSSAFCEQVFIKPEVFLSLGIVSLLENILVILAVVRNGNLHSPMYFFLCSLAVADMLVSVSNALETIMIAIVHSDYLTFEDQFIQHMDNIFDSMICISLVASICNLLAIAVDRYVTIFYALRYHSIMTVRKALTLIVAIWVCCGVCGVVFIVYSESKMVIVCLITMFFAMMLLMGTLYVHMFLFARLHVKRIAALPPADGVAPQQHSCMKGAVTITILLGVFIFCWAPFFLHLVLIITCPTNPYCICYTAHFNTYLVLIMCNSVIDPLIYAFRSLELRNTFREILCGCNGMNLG
T4 sequence (P35372 whole entry): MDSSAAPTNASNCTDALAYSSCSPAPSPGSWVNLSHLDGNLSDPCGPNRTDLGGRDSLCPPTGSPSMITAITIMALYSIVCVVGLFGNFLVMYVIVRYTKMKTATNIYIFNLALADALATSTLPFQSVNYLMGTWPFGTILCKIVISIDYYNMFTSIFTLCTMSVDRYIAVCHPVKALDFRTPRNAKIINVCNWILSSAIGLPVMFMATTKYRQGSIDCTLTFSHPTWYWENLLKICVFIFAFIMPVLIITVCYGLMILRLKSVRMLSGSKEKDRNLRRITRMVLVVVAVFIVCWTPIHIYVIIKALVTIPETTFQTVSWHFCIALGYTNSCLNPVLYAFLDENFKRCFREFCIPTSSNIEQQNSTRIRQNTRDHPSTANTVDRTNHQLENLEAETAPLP
T7 sequence (Q99705 whole entry): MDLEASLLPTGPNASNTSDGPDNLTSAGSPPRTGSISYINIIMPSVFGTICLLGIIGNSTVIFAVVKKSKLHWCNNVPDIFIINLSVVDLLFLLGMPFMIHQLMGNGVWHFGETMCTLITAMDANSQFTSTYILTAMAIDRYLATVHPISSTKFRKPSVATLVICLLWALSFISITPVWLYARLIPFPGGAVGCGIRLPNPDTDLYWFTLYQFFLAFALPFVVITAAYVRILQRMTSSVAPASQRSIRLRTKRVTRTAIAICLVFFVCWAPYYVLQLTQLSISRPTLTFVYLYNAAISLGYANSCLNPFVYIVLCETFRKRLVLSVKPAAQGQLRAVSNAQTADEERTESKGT
T1 sequence (P32245 whole entry): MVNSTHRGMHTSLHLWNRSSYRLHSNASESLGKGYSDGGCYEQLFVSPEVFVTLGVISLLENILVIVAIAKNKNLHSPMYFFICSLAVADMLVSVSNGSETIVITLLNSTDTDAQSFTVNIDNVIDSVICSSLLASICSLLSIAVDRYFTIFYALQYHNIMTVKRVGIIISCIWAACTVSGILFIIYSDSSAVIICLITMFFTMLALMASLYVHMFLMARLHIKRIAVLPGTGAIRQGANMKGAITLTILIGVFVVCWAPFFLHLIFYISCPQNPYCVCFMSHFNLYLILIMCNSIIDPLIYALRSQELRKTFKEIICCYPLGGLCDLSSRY
T5 sequence (P41145 whole entry): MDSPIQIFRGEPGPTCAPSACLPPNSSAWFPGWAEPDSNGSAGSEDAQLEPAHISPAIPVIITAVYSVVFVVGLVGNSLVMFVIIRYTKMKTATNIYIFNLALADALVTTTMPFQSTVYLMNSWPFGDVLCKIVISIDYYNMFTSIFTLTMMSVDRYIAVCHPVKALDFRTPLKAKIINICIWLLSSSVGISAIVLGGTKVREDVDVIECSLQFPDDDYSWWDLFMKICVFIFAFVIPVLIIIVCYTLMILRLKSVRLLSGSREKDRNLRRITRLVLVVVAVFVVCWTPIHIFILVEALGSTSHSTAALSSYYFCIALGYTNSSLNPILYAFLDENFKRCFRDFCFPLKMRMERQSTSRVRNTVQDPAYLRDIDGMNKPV
T8 sequence (P41146 whole entry): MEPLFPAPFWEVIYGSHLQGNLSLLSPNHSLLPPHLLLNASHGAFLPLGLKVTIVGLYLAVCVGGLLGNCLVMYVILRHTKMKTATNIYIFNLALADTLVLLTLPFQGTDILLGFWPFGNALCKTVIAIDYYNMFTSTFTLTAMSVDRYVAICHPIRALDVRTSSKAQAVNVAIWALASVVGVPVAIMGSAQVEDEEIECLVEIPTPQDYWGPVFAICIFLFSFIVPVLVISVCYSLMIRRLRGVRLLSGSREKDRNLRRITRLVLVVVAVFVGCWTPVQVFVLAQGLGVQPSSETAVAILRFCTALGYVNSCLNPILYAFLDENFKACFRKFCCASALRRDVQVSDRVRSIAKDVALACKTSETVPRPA
T9 sequence (P41143 whole entry): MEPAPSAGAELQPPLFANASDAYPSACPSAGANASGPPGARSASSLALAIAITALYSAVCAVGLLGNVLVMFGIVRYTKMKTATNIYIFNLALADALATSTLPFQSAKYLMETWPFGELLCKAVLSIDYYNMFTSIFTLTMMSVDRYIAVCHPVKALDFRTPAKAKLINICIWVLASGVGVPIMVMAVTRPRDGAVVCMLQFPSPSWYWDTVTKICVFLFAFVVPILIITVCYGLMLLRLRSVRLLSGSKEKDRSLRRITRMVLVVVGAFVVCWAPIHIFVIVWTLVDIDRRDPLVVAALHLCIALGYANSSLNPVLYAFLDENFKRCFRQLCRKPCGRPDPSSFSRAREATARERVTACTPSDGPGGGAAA

For `COC[C@H]1OC(OCc2cccc(O)c2)[C@H](NC(=O)CCNC(=N)N)[C@@H](OCc2ccc(Cl)cc2)[C@@H]1O` (some centres unmarked) [compound 145], the “A4 radioligand binding, percentage inhibition” value on Human Melanocortin (MC4) is “− (“−” indicates less than 50% inhibition at 10 μM)”. Further, the “A11 radioligand binding, percentage inhibition” value on Mouse urotensin (mUR2) is “− (“−” indicates less than 50% inhibition at 10 μM)”. The “A5 radioligand binding, percentage inhibition” value on Human melanocortin (MC5) was “− (“−” indicates less than 50% inhibition at 10 μM)”. Further, at Human μ-opioid (MOP), the “A7 radioligand binding, percentage inhibition” value was “− (“−” indicates less than 50% inhibition at 10 μM)”. The “A2 radioligand binding, percentage inhibition” value at Human κ-Opioid (KOP) is on record as “− (“−” indicates less than 50% inhibition at 10 μM)”. Moreover, the “A8 radioligand binding, percentage inhibition” value on Human neurokinin (NK1) is recorded as “− (“−” indicates less than 50% inhibition at 10 μM)”. The “A6 radioligand binding, percentage inhibition” value in [1] ([125I]-S36057) is “+ (“+” indicates greater than 50% inhibition at 10 μM)”. Further, the “A10 radioligand binding, percentage inhibition” value at Human opioid (ORL1) is “− (“−” indicates less than 50% inhibition at 10 μM)”. Moreover, the “A1 radioligand binding, percentage inhibition” value at Human δ-opioid (DOP) was “− (“−” indicates less than 50% inhibition at 10 μM)”. In addition, the “A9 radioligand binding, percentage inhibition” value in [2] is recorded as “− (“−” indicates less than 50% inhibition at 10 μM)”. For the same molecule, the “A3 radioligand binding, percentage inhibition” value on Human Melanocortin (MC3) is “− (“−” indicates less than 50% inhibition at 10 μM)”.

Regarding `N=C(N)NCC(=O)NC1COC(COCc2ccc3ccccc3c2)C(O)C1OCc1ccc(Cl)cc1` (centres unmarked) [compound 540], the “A4: inhibition of radioligand binding, human melanocortin (MC4)” value on Human Melanocortin (MC4) was “+ (“+” indicates greater than 50% inhibition at 10 μM)”. The “A11: inhibition of radioligand binding, mouse urotensin (mUR2)” value on Mouse urotensin (mUR2) was “− (“−” indicates less than 50% inhibition at 10 μM)”. On Human melanocortin (MC5), the “A5: inhibition of radioligand binding, human melanocortin (MC5)” value is listed as “− (“−” indicates less than 50% inhibition at 10 μM)”. Further, the “A7: inhibition of radioligand binding, human μ-opioid (MOP)” value on Human μ-opioid (MOP) is listed as “− (“−” indicates less than 50% inhibition at 10 μM)”. For the same molecule, the “A2: inhibition of radioligand binding, human κ-opioid (KOP)” value on Human κ-Opioid (KOP) was “− (“−” indicates less than 50% inhibition at 10 μM)”. Also, the “A8: inhibition of radioligand binding, human neurokinin (NK1)” value at Human neurokinin (NK1) is recorded as “+ (“+” indicates greater than 50% inhibition at 10 μM)”. Also, the “A6: inhibition of radioligand binding, human melanin-concentrating hormone (MCH1)” value in assay [1] ([125I]-S36057) is listed as “− (“−” indicates less than 50% inhibition at 10 μM)”. Moreover, the “A10: inhibition of radioligand binding, human opioid (ORL1)” value on Human opioid (ORL1) is on record as “− (“−” indicates less than 50% inhibition at 10 μM)”. For the same molecule, the “A1: inhibition of radioligand binding, human δ-opioid (DOP)” value at Human δ-opioid (DOP) is recorded as “− (“−” indicates less than 50% inhibition at 10 μM)”. Also, the “A9: inhibition of radioligand binding, human neuropeptide Y (NPY-Y1)” value in assay [2] is recorded as “− (“−” indicates less than 50% inhibition at 10 μM)”. Moreover, the “A3: inhibition of radioligand binding, human melanocortin (MC3)” value at Human Melanocortin (MC3) is “− (“−” indicates less than 50% inhibition at 10 μM)”.

Turning to `N=C(N)NCCC(=O)N[C@H]1C(OCc2ccc(Cl)cc2)O[C@H](COCc2ccc3ccccc3c2)[C@@H](O)[C@@H]1OCc1ccc2ccccc2c1` (some centres unmarked) [compound 528], the “A4: inhibition of radioligand binding, human melanocortin (MC4)” value at Human Melanocortin (MC4) (10 µM) is on record as “− (“−” indicates less than 50% inhibition at 10 μM)”. Further, the “A11: inhibition of radioligand binding, mouse urotensin (mUR2)” value on Mouse urotensin (mUR2) is “− (“−” indicates less than 50% inhibition at 10 μM)”. Also, the “A5: inhibition of radioligand binding, human melanocortin (MC5)” value on Human melanocortin (MC5) (10 µM) was “− (“−” indicates less than 50% inhibition at 10 μM)”. In addition, the “A7: inhibition of radioligand binding, human μ-opioid (MOP)” value on Human μ-opioid (MOP) is reported as “− (“−” indicates less than 50% inhibition at 10 μM)”. Also, at Human κ-Opioid (KOP) (10 µM), the “A2: inhibition of radioligand binding, human κ-opioid (KOP)” value was “− (“−” indicates less than 50% inhibition at 10 μM)”. Further, the “A8: inhibition of radioligand binding, human neurokinin (NK1)” value at Human neurokinin (NK1) was “+ (“+” indicates greater than 50% inhibition at 10 μM)”. Moreover, in [1] ([125I]-S36057, 10 µM), the “A6: inhibition of radioligand binding, human melanin-concentrating hormone (MCH1)” value is “− (“−” indicates less than 50% inhibition at 10 μM)”. Also, the “A10: inhibition of radioligand binding, human opioid (ORL1)” value at Human opioid (ORL1) is reported as “− (“−” indicates less than 50% inhibition at 10 μM)”. The “A1: inhibition of radioligand binding, human δ-opioid (DOP)” value at Human δ-opioid (DOP) is listed as “− (“−” indicates less than 50% inhibition at 10 μM)”. Further, the “A9: inhibition of radioligand binding, human neuropeptide Y (NPY-Y1)” value in assay [2] was “− (“−” indicates less than 50% inhibition at 10 μM)”. In addition, at Human Melanocortin (MC3) (10 µM), the “A3: inhibition of radioligand binding, human melanocortin (MC3)” value was “− (“−” indicates less than 50% inhibition at 10 μM)”.

For the molecule `NCCCC(=O)NC1C(OCc2ccc3ccccc3c2)OC(COCc2ccc(Cl)cc2)C(O)C1OCc1ccccc1` (single isomer, unassigned) [compound 470], the “A4: inhibition of radioligand binding” value at Human Melanocortin (MC4) (human MC4 membranes, 10 µM) was “− (“−” indicates less than 50% inhibition at 10 μM)”. Moreover, on Mouse urotensin (mUR2) (mouse mUR2 membranes), the “A11: inhibition of radioligand binding” value was “− (“−” indicates less than 50% inhibition at 10 μM)”. The “A5: inhibition of radioligand binding” value on Human melanocortin (MC5) (human MC5 membranes) was “+ (“+” indicates greater than 50% inhibition at 10 μM)”. The “A7: inhibition of radioligand binding” value on Human μ-opioid (MOP) (human MOP membranes) is on record as “− (“−” indicates less than 50% inhibition at 10 μM)”. For the same molecule, the “A2: inhibition of radioligand binding” value on Human κ-Opioid (KOP) (human KOP membranes) is “− (“−” indicates less than 50% inhibition at 10 μM)”. At Human neurokinin (NK1) (human NK1 membranes), the “A8: inhibition of radioligand binding” value is reported as “+ (“+” indicates greater than 50% inhibition at 10 μM)”. In [1] ([125I]-S36057, human MCH1 membranes), the “A6: inhibition of radioligand binding” value is “− (“−” indicates less than 50% inhibition at 10 μM)”. Also, on Human opioid (ORL1) (human ORL1 membranes, 10 µM), the “A10: inhibition of radioligand binding” value is given as “+ (“+” indicates greater than 50% inhibition at 10 μM)”. Besides, at Human δ-opioid (DOP) (human DOP membranes), the “A1: inhibition of radioligand binding” value is listed as “− (“−” indicates less than 50% inhibition at 10 μM)”. Also, the “A9: inhibition of radioligand binding” value in [2] (human NPY-Y1 membranes) is listed as “− (“−” indicates less than 50% inhibition at 10 μM)”. The “A3: inhibition of radioligand binding” value at Human Melanocortin (MC3) (human MC3 membranes, 10 µM) is on record as “− (“−” indicates less than 50% inhibition at 10 μM)”.
